Assay results published in the supplement of paper PMC10307832.

Experiments:
Test in all cases: relative viability (nuclei count vs DMSO), 5 days (fraction); higher = more cells survive
BAM7 + Bortezomib = compound: CCOC1=CC=CC=C1N=NC2=C(NN(C2=O)C3=NC(=CS3)C4=CC=CC=C4)C [BAM7] + CC(C)C[C@H](NC(=O)[C@H](Cc1ccccc1)NC(=O)c1cnccn1)B(O)O [Bortezomib] (partner 0.002 µM)
Summary of the method: (§1)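 Medians of duplicate plates are given as relative viability. That measure is the nuclei count in treated wells divided by the count in vehicle wells. Counts were taken on 4× images of lung cancer cell lines in 1536-well plates, 5 days after pin-tool dosing the day after seeding with one drug alone or a fixed anchor-drug dose plus five library-drug doses (not always all listed) in √10 steps.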

BAM7 + Vorinostat = compound: CCOC1=CC=CC=C1N=NC2=C(NN(C2=O)C3=NC(=CS3)C4=CC=CC=C4)C [BAM7] + O=C(CCCCCCC(=O)Nc1ccccc1)NO [Vorinostat] (partner 1 µM)
Summary of the method: as §1

[1] = compound: CCn1c(-c2nonc2N)nc2c(C#CC(C)(C)O)ncc(OC[C@H]3CCCNC3)c21 + N=C(N)NC(=N)NCCc1ccccc1 [Phenformin] (partner 250 µM)
Summary of the method: as §1

[2] = compound: CCn1c(-c2nonc2N)nc2c(C#CC(C)(C)O)ncc(OC[C@H]3CCCNC3)c21 + NC(=O)Nc1cc(-c2cccc(F)c2)sc1C(=O)N[C@H]1CCCNC1 [AZD7762] (partner 0.2 µM)
Summary of the method: as §1

| Cell Line | relative viability (BAM7 + Bortezomib; first compound 0.5 µM) | relative viability (BAM7 + Bortezomib; first compound 5 µM) | relative viability (BAM7 + Bortezomib; first compound 15.81 µM) | relative viability (BAM7 + Bortezomib; first compound 50 µM) | relative viability (BAM7 + Vorinostat; first compound 0.5 µM) | relative viability (BAM7 + Vorinostat; first compound 5 µM) | relative viability (BAM7 + Vorinostat; first compound 15.81 µM) | relative viability (BAM7 + Vorinostat; first compound 50 µM) | relative viability ([1]; first compound 0.01 µM) | relative viability ([1]; first compound 0.03162 µM) | relative viability ([1]; first compound 0.1 µM) | relative viability ([1]; first compound 0.3162 µM) | relative viability ([1]; first compound 1 µM) | relative viability ([2]; first compound 0.01 µM) | relative viability ([2]; first compound 0.03162 µM) | relative viability ([2]; first compound 0.1 µM) | relative viability ([2]; first compound 0.3162 µM) | relative viability ([2]; first compound 1 µM) |
| --- | --- | --- | --- | --- | --- | --- | --- | --- | --- | --- | --- | --- | --- | --- | --- | --- | --- | --- |
| NCI-H1355 | 1.2 | 1.16 | 1.13 | 1.11 | 0.617 | 0.553 | 0.544 | 0.566 | 0.488 | 0.458 | 0.417 | 0.434 | 0.483 | 0.768 | 0.762 | 0.827 | 0.625 | 0.743 |
| HCC-78 | 0.586 | 0.63 | 0.419 | 0.608 | 0.382 | 0.455 | 0.436 | 0.459 | 0.655 | 0.755 | 0.711 | 0.588 | 0.67 | 0.627 | 0.532 | 0.579 | 0.614 | 0.445 |
| NCI-H1563 | 0.972 | 0.82 | 0.899 | 1.06 | – | – | – | – | 0.623 | 0.618 | 0.701 | 0.63 | 0.649 | – | – | – | – | – |
| HCC-15 | 1.02 | 1.06 | 1 | 0.934 | 0.703 | 0.729 | 0.605 | 0.667 | 0.439 | 0.502 | 0.456 | 0.395 | 0.404 | 1.2 | 1.26 | 1.17 | 1.13 | 1.37 |
| EKVX | 1.2 | 1.15 | 0.758 | 0.986 | 0.611 | 0.664 | 0.457 | 0.513 | 0.232 | 0.231 | 0.217 | 0.217 | 0.195 | 0.699 | 0.687 | 0.632 | 0.732 | 0.596 |
| NCI-H2087 | 0.892 | 0.85 | 0.843 | 0.767 | 0.852 | 0.736 | 0.489 | 0.475 | 0.454 | 0.572 | 0.478 | 0.43 | 0.465 | 1.31 | – | 1.13 | 1.35 | 1.42 |
| LK-2 | – | – | – | – | 0.341 | 0.346 | 0.343 | 0.353 | 0.515 | 0.392 | – | – | 0.455 | 0.457 | 0.446 | 0.291 | 0.339 | 0.303 |
| NCI-H1437 | 0.537 | 0.412 | 0.395 | 0.551 | 0.734 | 0.669 | 0.616 | 0.677 | 0.331 | 0.34 | 0.293 | 0.239 | 0.306 | 1.03 | 1.17 | 1.18 | 1.08 | 0.953 |
| COR-L23 | 1.03 | 1.06 | 0.845 | 0.916 | 0.434 | 0.379 | 0.433 | 0.52 | 0.444 | 0.399 | 0.422 | 0.373 | 0.389 | – | – | – | – | – |
| ABC-1 | 0.326 | 0.355 | 0.295 | 0.383 | 1.04 | 1.45 | 0.983 | 1.18 | 0.244 | 0.204 | 0.236 | 0.228 | 0.255 | 0.705 | – | 0.568 | 0.716 | 0.594 |
